Results taken from patent US20260226068A1, “IMIDAZOTRIAZINE IL-17A MODULATORS AND USES THEREOF” (DICE ALPHA, INC., priority 2023, published 2026).

What was measured:
IL-17A/F = target: T1, IL-17A/F (Homo sapiens, UniProt Q16552+Q96PD4); assay: IL-17A/F HEK-Blue cell assay (SEAP reporter); assay type: cell-based; conditions: HEK-Blue IL-17A reporter cells, IL17A/F 5 ng/mL, 20 hours, SEAP read at A630; read-out: HEK-Blue IL17AF (IC50 for IL-17A/F inhibition)
T1 construct: purchased R&D Systems
T1 sequence (Q16552 24-155): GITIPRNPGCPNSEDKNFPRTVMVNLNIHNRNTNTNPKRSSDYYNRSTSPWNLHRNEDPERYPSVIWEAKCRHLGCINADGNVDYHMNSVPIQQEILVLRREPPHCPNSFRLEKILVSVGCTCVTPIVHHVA
T1 sequence (Q96PD4 31-163): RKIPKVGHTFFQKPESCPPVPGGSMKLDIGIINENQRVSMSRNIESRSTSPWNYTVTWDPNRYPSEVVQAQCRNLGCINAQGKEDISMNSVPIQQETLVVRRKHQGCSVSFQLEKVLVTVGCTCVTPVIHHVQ

IL-17A/A = target: T2, IL-17A/A (Homo sapiens, UniProt Q16552); assay: IL-17A/A HEK-Blue cell assay (SEAP reporter); assay type: cell-based; conditions: HEK-Blue IL-17A reporter cells, IL17A/A 5 ng/mL, 20 hours, SEAP read at A630; read-out: HEK-Blue IL17AA (IC50 for IL-17A/A inhibition)
T2 construct: purchased Genscript Z03228
T2 sequence (Q16552 24-155): T1 sequence (Q16552 24-155)

Row | Compound | IC50 (IL-17A/F) | IC50 (IL-17A/A)
1 | CCn1nccc1C(=O)N[C@H](c1cn2nc(C[C@H]3C[C@@H](C(F)(F)F)CNC3=O)c(CN3CCCC3C)nc2n1)C1CCC(F)(F)CC1 (stereo partly drawn) [Compound 343, N-((1S)-(4,4-difluorocyclohexyl)(3-((2-methylpyrrolidin-1-yl)methyl)-2-(((3R,5R)-2-oxo-5-(trifluoromethyl)piperidin-3-yl)methyl)imidazo[1,2-b][1,2,4]triazin-6-yl)methyl)-1-ethyl-1H-pyrazole-5-carboxamide] | > 1 µM | < 0.1 µM
2 | CCn1nccc1C(=O)N[C@H](c1cn2nc(C[C@H]3C[C@@H](C(F)(F)F)CNC3=O)c(CN3CCC4(CC4)C3)nc2n1)C1CCC(F)(F)CC1 [Compound 344, N—((S)-(3-((5-azaspiro[2.4]heptan-5-yl)methyl)-2-(((3R,5R)-2-oxo-5-(trifluoromethyl)piperidin-3-yl)methyl)imidazo[1,2-b][1,2,4]triazin-6-yl)(4,4-difluorocyclohexyl)methyl)-1-ethyl-1H-pyrazole-5-carboxamide] | > 1 µM | 0.1 to 1 µM
3 | CCn1nccc1C(=O)N[C@H](c1cn2nc(C[C@H]3C[C@@H](C(F)(F)F)CNC3=O)c(CN3CCC(F)(F)CC3)nc2n1)C1CCC(F)(F)CC1 [Compound 345, N—((S)-(4,4-difluorocyclohexyl)(3-((4,4-difluoropiperidin-1-yl)methyl)-2-(((3R,5R)-2-oxo-5-(trifluoromethyl)piperidin-3-yl)methyl)imidazo[1,2-b][1,2,4]triazin-6-yl)methyl)-1-ethyl-1H-pyrazole-5-carboxamide] | > 1 µM | < 0.1 µM
4 | CCn1nccc1C(=O)N[C@H](c1cn2nc(C[C@H]3C[C@@H](C(F)(F)F)CNC3=O)c(CN3CCC4(CC3)CC4)nc2n1)C1CCC(F)(F)CC1 [Compound 346, N—((S)-(3-((6-azaspiro[2.5]octan-6-yl)methyl)-2-(((3R,5R)-2-oxo-5-(trifluoromethyl)piperidin-3-yl)methyl)imidazo[1,2-b][1,2,4]triazin-6-yl)(4,4-difluorocyclohexyl)methyl)-1-ethyl-1H-pyrazole-5-carboxamide] | > 1 µM | < 0.1 µM
5 | CCn1nccc1C(=O)N[C@H](c1cn2nc(C[C@H]3C[C@@H](C(F)(F)F)CNC3=O)c(CN3CCCC4(CC4)C3)nc2n1)C1CCC(F)(F)CC1 [Compound 347, N—((S)-(3-((5-azaspiro[2.5]octan-5-yl)methyl)-2-(((3R,5R)-2-oxo-5-(trifluoromethyl)piperidin-3-yl)methyl)imidazo[1,2-b][1,2,4]triazin-6-yl)(4,4-difluorocyclohexyl)methyl)-1-ethyl-1H-pyrazole-5-carboxamide] | > 1 µM | < 0.1 µM
6 | CCn1nccc1C(=O)N[C@H](c1cn2nc(C[C@H]3C[C@@H](C(F)(F)F)CNC3=O)c(CN3CCOC(C)C3)nc2n1)C1CCC(F)(F)CC1 (stereo partly drawn) [Compound 349, N-((1S)-(4,4-difluorocyclohexyl)(3-((2-methylmorpholino)methyl)-2-(((3R,5R)-2-oxo-5-(trifluoromethyl)piperidin-3-yl)methyl)imidazo[1,2-b][1,2,4]triazin-6-yl)methyl)-1-ethyl-1H-pyrazole-5-carboxamide] | > 1 µM | < 0.1 µM
7 | CCn1nccc1C(=O)N[C@H](c1cn2nc(C[C@H]3C[C@@H](C(F)(F)F)CNC3=O)c(CN3CCOC(C)(C)C3)nc2n1)C1CCC(F)(F)CC1 [Compound 351, N—((S)-(4,4-difluorocyclohexyl)(3-((2,2-dimethylmorpholino)methyl)-2-(((3R,5R)-2-oxo-5-(trifluoromethyl)piperidin-3-yl)methyl)imidazo[1,2-b][1,2,4]triazin-6-yl)methyl)-1-ethyl-1H-pyrazole-5-carboxamide] | > 1 µM | < 0.1 µM
8 | CCn1nccc1C(=O)N[C@H](c1cn2nc(C[C@H]3C[C@@H](C(F)(F)F)CNC3=O)c(CN3CCN(CC(F)(F)F)C(=O)C3)nc2n1)C1CCC(F)(F)CC1 [Compound 352, N—((S)-(4,4-difluorocyclohexyl)(3-((3-oxo-4-(2,2,2-trifluoroethyl)piperazin-1-yl)methyl)-2-(((3R,5R)-2-oxo-5-(trifluoromethyl)piperidin-3-yl)methyl)imidazo[1,2-b][1,2,4]triazin-6-yl)methyl)-1-ethyl-1H-pyrazole-5-carboxamide] | > 1 µM | 0.1 to 1 µM
9 | CCn1nccc1C(=O)N[C@H](c1cn2nc(C[C@H]3C[C@@H](C(F)(F)F)CNC3=O)c(C3COCCN3)nc2n1)C1CCC(F)(F)CC1 (stereo partly drawn) [Compound 353, N-((1S)-(4,4-difluorocyclohexyl)(3-(morpholin-3-yl)-2-(((3R,5R)-2-oxo-5-(trifluoromethyl)piperidin-3-yl)methyl)imidazo[1,2-b][1,2,4]triazin-6-yl)methyl)-1-ethyl-1H-pyrazole-5-carboxamide] | > 1 µM | < 0.1 µM
10 | CCn1nccc1C(=O)N[C@H](c1cn2nc(C[C@H]3C[C@@H](C(F)(F)F)CNC3=O)c(C3CCOC4(C3)CN(C)C4)nc2n1)C1CCC(F)(F)CC1 (stereo partly drawn) [Compound 354, N-((1S)-(4,4-difluorocyclohexyl)(3-(2-methyl-5-oxa-2-azaspiro[3.5]nonan-8-yl)-2-(((3R,5R)-2-oxo-5-(trifluoromethyl)piperidin-3-yl)methyl)imidazo[1,2-b][1,2,4]triazin-6-yl)methyl)-1-ethyl-1H-pyrazole-5-carboxamide] | > 1 µM | 0.1 to 1 µM
11 | CCn1nccc1C(=O)N[C@H](c1cn2nc(C[C@H]3C[C@@H](C(F)(F)F)CNC3=O)c(C3COC4(C3)CN(C)C4)nc2n1)C1CCC(F)(F)CC1 (stereo partly drawn) [Compound 355, N-((1S)-(4,4-difluorocyclohexyl)(3-(2-methyl-5-oxa-2-azaspiro[3.4]octan-7-yl)-2-(((3R,5R)-2-oxo-5-(trifluoromethyl)piperidin-3-yl)methyl)imidazo[1,2-b][1,2,4]triazin-6-yl)methyl)-1-ethyl-1H-pyrazole-5-carboxamide] | > 1 µM | 0.1 to 1 µM

Now from value to compound:

Row | IC50 (IL-17A/F) | IC50 (IL-17A/A) | Compound
12 | > 1 µM | < 0.1 µM | CCn1nccc1C(=O)N[C@H](c1cn2nc(C[C@H]3C[C@@H](C(F)(F)F)CNC3=O)c(CN3CC4(C3)CC(F)(F)C4)nc2n1)C1CCC(F)(F)CC1 [Compound 340, N—((S)-(3-((6,6-difluoro-2-azaspiro[3.3]heptan-2-yl)methyl)-2-(((3R,5R)-2-oxo-5-(trifluoromethyl)piperidin-3-yl)methyl)imidazo[1,2-b][1,2,4]triazin-6-yl)(4,4-difluorocyclohexyl)methyl)-1-ethyl-1H-pyrazole-5-carboxamide]
13 | > 1 µM | < 0.1 µM | CCn1nccc1C(=O)N[C@H](c1cn2nc(C[C@H]3C[C@@H](C(F)(F)F)CNC3=O)c(CN3CC4(C3)CC(O)(C(F)(F)F)C4)nc2n1)C1CCC(F)(F)CC1 [Compound 341, N—((S)-(4,4-difluorocyclohexyl)(3-((6-hydroxy-6-(trifluoromethyl)-2-azaspiro[3.3]heptan-2-yl)methyl)-2-(((3R,5R)-2-oxo-5-(trifluoromethyl)piperidin-3-yl)methyl)imidazo[1,2-b][1,2,4]triazin-6-yl)methyl)-1-ethyl-1H-pyrazole-5-carboxamide]
14 | > 1 µM | 0.1 to 1 µM | CCn1nccc1C(=O)N[C@H](c1cn2nc(C[C@H]3C[C@@H](C(F)(F)F)CNC3=O)c(CN3CCC(C)(C)C3)nc2n1)C1CCC(F)(F)CC1 [Compound 342, N—((S)-(4,4-difluorocyclohexyl)(3-((3,3-dimethylpyrrolidin-1-yl)methyl)-2-(((3R,5R)-2-oxo-5-(trifluoromethyl)piperidin-3-yl)methyl)imidazo[1,2-b][1,2,4]triazin-6-yl)methyl)-1-ethyl-1H-pyrazole-5-carboxamide]
15 | 0.1 to 1 µM | < 0.1 µM | CCn1nccc1C(=O)N[C@H](c1cn2nc(C[C@H]3C[C@@H](C(F)(F)F)CNC3=O)c(CN3CC4CC(C3)C4(F)F)nc2n1)C1CCC(F)(F)CC1 [Compound 348, N-((1S)-(3-((6,6-difluoro-3-azabicyclo[3.1.1]heptan-3-yl)methyl)-2-(((3R,5R)-2-oxo-5-(trifluoromethyl)piperidin-3-yl)methyl)imidazo[1,2-b][1,2,4]triazin-6-yl)(4,4-difluorocyclohexyl)methyl)-1-ethyl-1H-pyrazole-5-carboxamide]
16 | 0.1 to 1 µM | < 0.1 µM | CCn1nccc1C(=O)N[C@H](c1cn2nc(C[C@H]3C[C@@H](C(F)(F)F)CNC3=O)c(CN(C)C3CC3)nc2n1)C1CCC(F)(F)CC1 [Compound 356, N—((S)-(3-((cyclopropyl(methyl)amino)methyl)-2-(((3R,5R)-2-oxo-5-(trifluoromethyl)piperidin-3-yl)methyl)imidazo[1,2-b][1,2,4]triazin-6-yl)(4,4-difluorocyclohexyl)methyl)-1-ethyl-1H-pyrazole-5-carboxamide]
17 | 0.1 to 1 µM | < 0.1 µM | CCn1nccc1C(=O)N[C@H](c1cn2nc(C[C@H]3C[C@@H](C(F)(F)F)CNC3=O)c(N3CCN(C)C4(CC4)C3)nc2n1)C1CCC(F)(F)CC1 [Compound 357, N—((S)-(4,4-difluorocyclohexyl)(3-(4-methyl-4,7-diazaspiro[2.5]octan-7-yl)-2-(((3R,5R)-2-oxo-5-(trifluoromethyl)piperidin-3-yl)methyl)imidazo[1,2-b][1,2,4]triazin-6-yl)methyl)-1-ethyl-1H-pyrazole-5-carboxamide]
